# From a melting point compilation (Tetko et al.)
row,Structure (SMILES),melting point
1,CCOC(=O)c1sc(-c2ccc(F)c(F)c2)nc1C,81 to 83 °C
2,Nc1nnc(-c2c(F)cccc2Cl)o1,152 to 154 °C
3,N#Cc1ccccc1COc1ccc(C(=O)O)cc1,211 to 213 °C
4,Nc1ccc(-n2nccn2)cc1C(F)(F)F,84 to 86 °C
5,NC(=O)Nc1ccc2c(c1)OCCO2,159 to 161 °C
6,CN1CCN(c2ccnc(C#N)c2)CC1,114 to 116 °C
7,COC(=O)C(c1ccc(F)cc1)N1CCN(C(=O)OC(C)(C)C)CC1 (configuration not stated),82 to 84 °C
8,OC(Cc1ccc(Cl)cc1)C(F)(F)F (configuration not stated),66 to 68 °C
9,OCC1(NCc2ccccc2)CCC1,51 to 53 °C
10,COC(=O)CC(NC(=S)NC12CC3CC(CC(C3)C1)C2)C(=O)OC (configuration not stated),117 to 119 °C
11,Cc1ccc(C(=O)O)cc1S(=O)(=O)NC1CCCC1,185 to 187 °C
12,COC(=O)C(N)Cc1c[nH]c2ccc(Br)cc12 (configuration not stated),119 to 121 °C
13,Nc1ccc(-c2ccc[nH]2)cc1,120 to 122 °C
14,O=C1CNc2cccc(F)c2N1,161 to 163 °C
15,CC1(c2cccc(Cl)c2)NC(=O)NC1=O (configuration not stated),200 to 202 °C
16,CC(C)Sc1ccc(Cl)nn1,56 to 58 °C
17,Cc1cc([N+](=O)[O-])cc(C)c1N,161 to 163 °C
18,FC(F)(F)c1nc(S)c2ccccc2n1,214 to 216 °C
19,CCOC(=O)c1cc(Br)cc(Cl)c1N,49 to 51 °C
20,Cc1cnc2c(c1)NCCN2,127 to 129 °C
21,O=C(O)c1ccnc(OCc2ccccc2)c1,171 to 173 °C
22,CC(=O)N1CCN(Cc2cccc(N)n2)CC1,169 to 171 °C
23,Cc1ccc2c(C)c(CCC(=O)O)c(=O)oc2c1,161 to 163 °C
24,Nc1ccc(-c2csc(N)n2)cc1,178 to 180 °C

row,Structure (SMILES),melting point
1,CN(CC(=O)O)S(=O)(=O)c1cccs1,152 to 156 °C
2,CCCNC(=O)NC(=O)CCl,119 to 121 °C
3,N#CCCNC(=O)CCl,96 to 98 °C
4,Fc1ccccc1CNc1ccncc1,83 to 85 °C
5,CC(CC(=N)N)NC(=O)OC(C)(C)C (configuration not stated),91 to 93 °C
6,N#Cc1ccc2nccnc2c1,179 to 181 °C
7,CCOC(=O)C(NC(=O)c1ccc(Cl)c(Cl)c1)C(C)O (configuration not stated),68 to 70 °C
8,Cc1cccc(-c2nn(-c3ccc(F)cc3)cc2C(=O)O)c1,168 to 170 °C
9,O=c1[nH]c(S)nc2sccc12,315 to 317 °C
10,N#Cc1cc2ccccn2c1,68 to 70 °C
11,CCC(C(=O)O)N1CCCC1=O (configuration not stated),156 to 158 °C
12,N#Cc1ccc(-n2cnc(N)n2)cc1,238 to 240 °C
13,CCC(C)(NC(=O)c1ccccc1)C(N)=S (configuration not stated),162 to 164 °C
14,O=C(c1cccnc1)c1csc2ccccc12,109 to 111 °C
15,COCc1cc([N+](=O)[O-])ccc1N,83 to 85 °C
16,O=C(O)c1ccc(Oc2ccc(Br)cc2)c(F)c1,251 to 253 °C
17,COc1ccc(-c2nn(-c3ccccc3)cc2C=CC(=O)O)cc1,238 to 240 °C
18,O=c1[nH]c2ccccc2n1C1=CCCCC1,181 to 183 °C
19,CC(Sc1ncccn1)C(=O)O (configuration not stated),135 to 137 °C
20,CN(C)Cc1nc(Cl)c2c(-c3ccccc3)csc2n1,114 to 116 °C
21,COc1ccc2c(ccn2CC(=O)O)c1,140 to 142 °C
22,CC(C)(C)OC(=O)NC1(C(=O)O)Cc2ccccc2C1,162 to 164 °C
23,NC(=O)c1csc(C=O)c1,155 to 157 °C
24,COc1cc(OC)c(NC(=O)c2cc3ccccc3cc2O)cc1Cl,199 to 201 °C

row,Structure (SMILES),melting point
1,NNc1ccc(S(=O)(=O)C(F)F)cc1,72 to 74 °C
2,ClCc1cc2c(cc1Br)OCO2,62 to 66 °C
3,O=C(O)CCc1nc(-c2nnc[nH]2)no1,246 to 248 °C
4,Cc1cccc(NC(=O)N2CCC(C(=O)O)CC2)c1,189 to 191 °C
5,CC(C)c1ncc(Cl)c(C(=O)O)n1,129 to 131 °C
6,O=Cc1ccnc2[nH]ccc12,169 to 171 °C
7,CC(=CC(=O)O)c1ccccc1OC(F)F,69 to 71 °C
8,Nc1ccc(F)c(NS(=O)(=O)c2ccccc2)c1,143 to 145 °C
9,Clc1ccc(-n2cccn2)cn1,107 to 109 °C
10,C#Cc1cccc(NC(N)=O)c1,153 to 155 °C
11,O=Cc1cc[nH]n1,139 to 141 °C
12,Oc1cccc2[nH]ncc12,164 to 166 °C
13,Cc1ccc(S(=O)(=O)N(C)c2ccc(OCC(=O)O)cc2)cc1,152 to 154 °C
14,COC(=O)/C=C/c1ccc(S(=O)(=O)Cl)cc1,112 to 114 °C
15,COC(=O)c1c[nH]nn1,139 to 141 °C
16,Cc1cc(S(=O)(=O)Cl)sc1Br,35 to 37 °C
17,O=Cc1ccc(F)c2cccnc12,113 to 115 °C
18,Cc1ccc(C(N)=O)n1C,152 to 154 °C
19,O=C(O)C1CCCN(C(=O)c2ccccc2)C1 (configuration not stated),189 to 191 °C
20,O=Cc1nc(-c2ccccc2)cs1,61 to 63 °C
21,Nc1nc2ccccc2n1CCCc1ccccc1,146 to 148 °C
22,O=C(O)c1ccccc1NS(=O)(=O)c1ccc(F)cc1,165 to 167 °C
23,CC1(C)CCC(C)(C)c2cc(C(=O)O)ccc21,199 to 201 °C
24,O=C(O)c1cc(Cl)c2c(c1)OCCO2,251 to 253 °C
